The source made the active and inactive calls. The calls are words filed in the database; no cut-off is given here.
What was measured:
[1] = molecular target: T1, Dual specificity mitogen-activated protein kinase kinase 1 (Homo sapiens, UniProt Q02750); assay: Competitive inhibition of MEK1 (unknown origin) using ERK2 as substrate after 40 mins by ELISA
[2] = molecular target: Tyrosine-protein kinase ABL1 (Homo sapiens) (UniProt P00519); assay: Inhibition of human Abl assessed as remaining activity at 0.1 uM after 40 mins in presence of [gamma33P-ATP] by scintillation counting
[3] = molecular target: Tyrosine-protein kinase ABL1 (Homo sapiens) (UniProt P00519); assay: Inhibition of human Abl assessed as remaining activity at 1 uM after 40 mins in presence of [gamma33P-ATP] by scintillation counting
[4] = molecular target: Tyrosine-protein kinase Lck (Homo sapiens) (UniProt P06239); assay: Inhibition of human Lck assessed as remaining activity at 0.1 uM after 40 mins in presence of [gamma33P-ATP] by scintillation counting
[5] = molecular target: Tyrosine-protein kinase Lck (Homo sapiens) (UniProt P06239); assay: Inhibition of human Lck assessed as remaining activity at 1 uM after 40 mins in presence of [gamma33P-ATP] by scintillation counting
[6] = molecular target: T1, Dual specificity mitogen-activated protein kinase kinase 1; assay: Inhibition of human MEK1 assessed as remaining activity at 0.1 uM after 40 mins in presence of [gamma33P-ATP] by scintillation counting
[7] = molecular target: T1, Dual specificity mitogen-activated protein kinase kinase 1; assay: Inhibition of human MEK1 assessed as remaining activity at 1 uM after 40 mins in presence of [gamma33P-ATP] by scintillation counting
[8] = molecular target: Tyrosine-protein kinase Yes (Homo sapiens) (UniProt P07947); assay: Inhibition of human Yes assessed as remaining activity at 0.1 uM after 40 mins in presence of [gamma33P-ATP] by scintillation counting
[9] = molecular target: Tyrosine-protein kinase Yes (Homo sapiens) (UniProt P07947); assay: Inhibition of human Yes assessed as remaining activity at 1 uM after 40 mins in presence of [gamma33P-ATP] by scintillation counting
[10] = Cytotoxicity against human AU565 cells assessed as reduction in cell viability after 96 hrs by CellTiter-Glo luminescence assay or methylene blue assay; format: functional, cell-based; conditions: AU565, 96 h
[11] = Cytotoxicity against human MCF7 cells assessed as reduction in cell viability after 96 hrs by CellTiter-Glo luminescence assay or methylene blue assay; format: functional, cell-based; conditions: MCF7, 96 h
[12] = Cytotoxicity against human MDA-MB-231 cells expressing K-ras G13D mutant assessed as reduction in cell viability after 96 hrs by CellTiter-Glo luminescence assay or methylene blue assay; format: functional, cell-based; conditions: MDA-MB-231, 96 h
[13] = Cytotoxicity against human MDA-MB-435 cells expressing B-RAF V600E mutant assessed as reduction in cell viability after 96 hrs by CellTiter-Glo luminescence assay or methylene blue assay; format: functional, cell-based; conditions: MDA-MB-435, 96 h
[14] = Cytotoxicity against human DU4475 cells expressing B-RAF V600E mutant assessed as reduction in cell viability after 96 hrs by CellTiter-Glo luminescence assay or methylene blue assay; format: functional, cell-based; conditions: DU-4475, 96 h
[15] = Cytotoxicity against human DLD1 cells expressing K-ras G13D mutant assessed as reduction in cell viability after 96 hrs by CellTiter-Glo luminescence assay or methylene blue assay; format: functional, cell-based; conditions: DLD-1, 96 h
[16] = Cytotoxicity against human SK-MEL-2 cells expressing N-ras Q61R mutant assessed as reduction in cell viability after 96 hrs by CellTiter-Glo luminescence assay or methylene blue assay; format: functional, cell-based; conditions: SK-MEL-2, 96 h
[17] = Cytotoxicity against human SK-MEL-3 cells expressing B-RAF V600E mutant assessed as reduction in cell viability after 96 hrs by CellTiter-Glo luminescence assay or methylene blue assay; format: functional, cell-based; conditions: SK-MEL3, 96 h
[18] = Cytotoxicity against human SK-MEL-24 cells expressing B-RAF V600E mutant assessed as reduction in cell viability after 96 hrs by CellTiter-Glo luminescence assay or methylene blue assay; format: functional, cell-based; conditions: SK-MEL-24, 96 h
[19] = Cytotoxicity against human SK-MEL-31 cells expressing B-RAF V600E mutant assessed as reduction in cell viability after 96 hrs by CellTiter-Glo luminescence assay or methylene blue assay; format: functional, cell-based
[20] = Cytotoxicity against human LoVo cells expressing K-ras G13D mutant assessed as reduction in cell viability after 96 hrs by CellTiter-Glo luminescence assay or methylene blue assay; format: functional, cell-based
[21] = Cytotoxicity against human HCT116 cells expressing K-ras G13D mutant assessed as reduction in cell viability after 96 hrs by CellTiter-Glo luminescence assay or methylene blue assay; format: functional, cell-based; conditions: HCT-116, 96 h
[22] = Cytotoxicity against human SW620 cells expressing K-ras G12V mutant assessed as reduction in cell viability after 96 hrs by CellTiter-Glo luminescence assay or methylene blue assay; format: functional, cell-based; conditions: SW-620, 96 h
[23] = Cytotoxicity against human COLO205 cells expressing B-RAF V600E mutant assessed as reduction in cell viability after 96 hrs by CellTiter-Glo luminescence assay or methylene blue assay; format: functional, cell-based; conditions: COLO 205, 96 h
[24] = Cytotoxicity against human HT-29 cells expressing B-RAF V600E mutant assessed as reduction in cell viability after 96 hrs by CellTiter-Glo luminescence assay or methylene blue assay; format: functional, cell-based; conditions: HT-29, 96 h
[25] = Cytotoxicity against human MIAPaCa2 cells expressing K-ras G12C mutant assessed as reduction in cell viability after 96 hrs by CellTiter-Glo luminescence assay or methylene blue assay; format: functional, cell-based; conditions: MIA PaCa-2, 96 h
[26] = Cytotoxicity against human PANC1 cells expressing K-ras G12D mutant assessed as reduction in cell viability after 96 hrs by CellTiter-Glo luminescence assay or methylene blue assay; format: functional, cell-based; conditions: PANC-1, 96 h
[27] = Cytotoxicity against human BxPC3 cells assessed as reduction in cell viability after 96 hrs by CellTiter-Glo luminescence assay or methylene blue assay; format: functional, cell-based; conditions: BXPC-3, 96 h
[28] = Cytotoxicity against human MES-SA cells assessed as reduction in cell viability after 96 hrs by CellTiter-Glo luminescence assay or methylene blue assay; format: functional, cell-based
[29] = Cytotoxicity against human MES-SA/Dx5-Rx1 cells assessed as reduction in cell viability after 96 hrs by CellTiter-Glo luminescence assay or methylene blue assay; format: functional, cell-based
[30] = Cytotoxicity against human IMR90 cells assessed as reduction in cell viability after 96 hrs by CellTiter-Glo luminescence assay or methylene blue assay; format: functional, cell-based; conditions: IMR-90, 96 h
[31] = Antitumor activity against human LOX cells expressing B-RAF V600E mutant xenografted in athymic mouse assessed as tumor regression at 10 mg/kg, iv administered for two weekly rounds of five injections daily with two-day rest period between the rounds measured twice weekly from first day of treatment for 3 weeks; format: functional
[32] = Antitumor activity against human LOX cells expressing B-RAF V600E mutant xenografted in athymic mouse assessed as tumor regression at 20 to 40 mg/kg, iv administered for two weekly rounds of five injections daily with two-day rest period between the rounds measured twice weekly from first day of treatment; format: functional
LOX = assay: Antitumor activity against human LOX cells expressing B-RAF V600E mutant xenografted in athymic mouse assessed as tumor regression at 10 to 40 mg/kg, iv administered for two weekly rounds of five injections daily with two-day rest period between the rounds measured at end of study; format: functional, organism-based
[33] = Antiproliferative activity against human HL60 cells after 96 hrs by MTT assay; format: functional, cell-based; conditions: HL-60, 96 h
[34] = Antiproliferative activity against human THP1 cells after 96 hrs by MTT assay; format: functional, cell-based; conditions: THP-1, 96 h
[35] = Antiproliferative activity against human K562 cells after 96 hrs by MTT assay; format: functional, cell-based; conditions: K562, 96 h
[36] = Antiproliferative activity against human U266 cells after 96 hrs by MTT assay; format: functional, cell-based; conditions: U-266, 96 h
[37] = Antiproliferative activity against human RPMI8226 cells after 96 hrs by MTT assay; format: functional, cell-based; conditions: RPMI-8226, 96 h
[38] = Antiproliferative activity against human RL cells after 96 hrs by MTT assay; format: functional, cell-based
[39] = Antiproliferative activity against human NALM6 cells after 96 hrs by MTT assay; format: functional, cell-based; conditions: NALM-6, 96 h
[40] = molecular target: Nuclear factor NF-kappa-B complex (Homo sapiens) (UniProt Q00653+P19838+Q04206); assay: Inhibition of NFkappaB (unknown origin); format: protein-complex assay
Nuclear factor NF-kappa-B complex (Homo sapiens), sequence (P19838 whole entry, looked up): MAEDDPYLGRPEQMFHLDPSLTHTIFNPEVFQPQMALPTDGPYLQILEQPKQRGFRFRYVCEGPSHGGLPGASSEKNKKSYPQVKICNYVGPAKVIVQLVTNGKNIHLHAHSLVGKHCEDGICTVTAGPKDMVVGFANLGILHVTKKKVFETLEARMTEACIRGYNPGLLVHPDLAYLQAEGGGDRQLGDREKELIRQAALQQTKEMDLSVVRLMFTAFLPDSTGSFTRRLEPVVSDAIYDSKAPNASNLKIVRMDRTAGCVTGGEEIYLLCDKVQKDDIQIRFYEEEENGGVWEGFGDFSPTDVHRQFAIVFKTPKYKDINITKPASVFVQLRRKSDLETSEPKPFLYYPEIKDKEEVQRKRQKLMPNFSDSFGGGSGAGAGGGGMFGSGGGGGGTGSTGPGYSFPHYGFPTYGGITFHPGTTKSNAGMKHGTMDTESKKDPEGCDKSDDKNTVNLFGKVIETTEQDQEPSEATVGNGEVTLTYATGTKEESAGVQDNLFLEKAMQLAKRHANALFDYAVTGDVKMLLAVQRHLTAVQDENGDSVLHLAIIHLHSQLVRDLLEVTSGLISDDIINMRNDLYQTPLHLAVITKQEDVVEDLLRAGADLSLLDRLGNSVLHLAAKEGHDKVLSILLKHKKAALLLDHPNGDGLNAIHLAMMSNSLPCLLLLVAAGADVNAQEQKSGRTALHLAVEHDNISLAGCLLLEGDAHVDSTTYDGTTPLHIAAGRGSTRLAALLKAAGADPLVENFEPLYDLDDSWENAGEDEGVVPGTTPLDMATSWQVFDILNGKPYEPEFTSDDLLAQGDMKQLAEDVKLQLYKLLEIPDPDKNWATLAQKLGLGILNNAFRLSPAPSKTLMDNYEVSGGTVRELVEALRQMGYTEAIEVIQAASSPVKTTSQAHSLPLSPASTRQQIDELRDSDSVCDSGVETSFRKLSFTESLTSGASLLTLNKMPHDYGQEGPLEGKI
Nuclear factor NF-kappa-B complex (Homo sapiens), sequence (Q00653 whole entry, looked up): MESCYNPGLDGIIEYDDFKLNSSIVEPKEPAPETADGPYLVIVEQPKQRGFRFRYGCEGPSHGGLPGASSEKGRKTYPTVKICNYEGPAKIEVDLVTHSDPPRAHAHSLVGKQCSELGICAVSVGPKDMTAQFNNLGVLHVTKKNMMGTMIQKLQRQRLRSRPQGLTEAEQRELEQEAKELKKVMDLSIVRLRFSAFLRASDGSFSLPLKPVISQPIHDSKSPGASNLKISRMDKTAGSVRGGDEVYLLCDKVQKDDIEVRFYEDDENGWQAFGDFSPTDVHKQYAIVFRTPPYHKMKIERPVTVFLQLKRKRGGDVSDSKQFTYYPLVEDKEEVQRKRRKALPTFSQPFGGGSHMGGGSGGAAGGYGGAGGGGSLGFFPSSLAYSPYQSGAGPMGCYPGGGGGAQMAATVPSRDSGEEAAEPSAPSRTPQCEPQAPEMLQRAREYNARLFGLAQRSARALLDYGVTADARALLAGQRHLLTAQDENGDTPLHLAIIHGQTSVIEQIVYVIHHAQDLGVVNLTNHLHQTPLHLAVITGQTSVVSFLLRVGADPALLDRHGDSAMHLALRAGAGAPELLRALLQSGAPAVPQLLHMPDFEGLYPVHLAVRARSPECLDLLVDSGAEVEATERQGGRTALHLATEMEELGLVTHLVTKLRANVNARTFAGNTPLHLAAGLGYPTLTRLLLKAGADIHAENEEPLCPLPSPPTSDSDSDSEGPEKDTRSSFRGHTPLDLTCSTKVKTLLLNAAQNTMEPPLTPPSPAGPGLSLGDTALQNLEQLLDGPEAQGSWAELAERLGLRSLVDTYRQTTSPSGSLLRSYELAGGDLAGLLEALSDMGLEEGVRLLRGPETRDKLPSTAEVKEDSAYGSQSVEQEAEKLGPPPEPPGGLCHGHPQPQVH
Nuclear factor NF-kappa-B complex (Homo sapiens), sequence (Q04206 whole entry, looked up): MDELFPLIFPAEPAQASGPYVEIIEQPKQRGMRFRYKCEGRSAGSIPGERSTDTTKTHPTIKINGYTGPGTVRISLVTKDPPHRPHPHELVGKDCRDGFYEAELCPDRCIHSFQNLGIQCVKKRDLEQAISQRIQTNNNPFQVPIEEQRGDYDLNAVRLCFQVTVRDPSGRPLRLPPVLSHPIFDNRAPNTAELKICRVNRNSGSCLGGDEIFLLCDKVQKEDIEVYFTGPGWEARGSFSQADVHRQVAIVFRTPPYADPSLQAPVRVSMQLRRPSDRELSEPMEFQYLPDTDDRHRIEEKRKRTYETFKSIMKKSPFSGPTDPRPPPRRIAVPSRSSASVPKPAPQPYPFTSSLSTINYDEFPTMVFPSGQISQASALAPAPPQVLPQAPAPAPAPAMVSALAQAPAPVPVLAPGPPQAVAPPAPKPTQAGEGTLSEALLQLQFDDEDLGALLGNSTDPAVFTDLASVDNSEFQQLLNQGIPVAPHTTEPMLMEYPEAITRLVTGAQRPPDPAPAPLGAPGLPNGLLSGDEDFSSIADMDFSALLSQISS

T1 sequence (Q02750 whole entry): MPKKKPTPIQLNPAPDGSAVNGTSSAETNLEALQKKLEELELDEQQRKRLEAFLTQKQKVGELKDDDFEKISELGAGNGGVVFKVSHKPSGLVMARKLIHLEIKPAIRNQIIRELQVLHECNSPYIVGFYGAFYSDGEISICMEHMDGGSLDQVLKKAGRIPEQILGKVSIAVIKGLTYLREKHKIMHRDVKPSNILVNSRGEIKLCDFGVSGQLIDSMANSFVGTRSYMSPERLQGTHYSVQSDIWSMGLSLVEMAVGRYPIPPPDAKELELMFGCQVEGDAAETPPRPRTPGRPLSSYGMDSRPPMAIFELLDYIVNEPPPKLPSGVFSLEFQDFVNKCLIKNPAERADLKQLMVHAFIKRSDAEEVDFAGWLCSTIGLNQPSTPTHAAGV
Tyrosine-protein kinase Yes (Homo sapiens), sequence (P07947 2-543 limits assumed): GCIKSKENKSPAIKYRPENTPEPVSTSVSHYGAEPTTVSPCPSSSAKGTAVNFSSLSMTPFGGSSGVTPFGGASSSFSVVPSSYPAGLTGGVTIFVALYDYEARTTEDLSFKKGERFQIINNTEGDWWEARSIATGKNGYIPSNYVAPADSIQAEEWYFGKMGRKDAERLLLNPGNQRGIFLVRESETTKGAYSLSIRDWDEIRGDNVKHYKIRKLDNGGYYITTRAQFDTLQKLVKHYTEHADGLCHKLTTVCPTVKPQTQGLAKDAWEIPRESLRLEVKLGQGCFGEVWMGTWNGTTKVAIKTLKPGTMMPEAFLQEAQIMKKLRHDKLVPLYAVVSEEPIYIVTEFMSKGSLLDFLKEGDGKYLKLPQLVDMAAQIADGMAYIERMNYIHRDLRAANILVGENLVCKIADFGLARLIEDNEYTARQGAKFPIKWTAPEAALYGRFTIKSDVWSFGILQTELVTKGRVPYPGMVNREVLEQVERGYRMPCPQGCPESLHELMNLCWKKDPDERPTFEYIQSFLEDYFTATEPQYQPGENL
Tyrosine-protein kinase ABL1 (Homo sapiens), sequence (P00519 whole entry): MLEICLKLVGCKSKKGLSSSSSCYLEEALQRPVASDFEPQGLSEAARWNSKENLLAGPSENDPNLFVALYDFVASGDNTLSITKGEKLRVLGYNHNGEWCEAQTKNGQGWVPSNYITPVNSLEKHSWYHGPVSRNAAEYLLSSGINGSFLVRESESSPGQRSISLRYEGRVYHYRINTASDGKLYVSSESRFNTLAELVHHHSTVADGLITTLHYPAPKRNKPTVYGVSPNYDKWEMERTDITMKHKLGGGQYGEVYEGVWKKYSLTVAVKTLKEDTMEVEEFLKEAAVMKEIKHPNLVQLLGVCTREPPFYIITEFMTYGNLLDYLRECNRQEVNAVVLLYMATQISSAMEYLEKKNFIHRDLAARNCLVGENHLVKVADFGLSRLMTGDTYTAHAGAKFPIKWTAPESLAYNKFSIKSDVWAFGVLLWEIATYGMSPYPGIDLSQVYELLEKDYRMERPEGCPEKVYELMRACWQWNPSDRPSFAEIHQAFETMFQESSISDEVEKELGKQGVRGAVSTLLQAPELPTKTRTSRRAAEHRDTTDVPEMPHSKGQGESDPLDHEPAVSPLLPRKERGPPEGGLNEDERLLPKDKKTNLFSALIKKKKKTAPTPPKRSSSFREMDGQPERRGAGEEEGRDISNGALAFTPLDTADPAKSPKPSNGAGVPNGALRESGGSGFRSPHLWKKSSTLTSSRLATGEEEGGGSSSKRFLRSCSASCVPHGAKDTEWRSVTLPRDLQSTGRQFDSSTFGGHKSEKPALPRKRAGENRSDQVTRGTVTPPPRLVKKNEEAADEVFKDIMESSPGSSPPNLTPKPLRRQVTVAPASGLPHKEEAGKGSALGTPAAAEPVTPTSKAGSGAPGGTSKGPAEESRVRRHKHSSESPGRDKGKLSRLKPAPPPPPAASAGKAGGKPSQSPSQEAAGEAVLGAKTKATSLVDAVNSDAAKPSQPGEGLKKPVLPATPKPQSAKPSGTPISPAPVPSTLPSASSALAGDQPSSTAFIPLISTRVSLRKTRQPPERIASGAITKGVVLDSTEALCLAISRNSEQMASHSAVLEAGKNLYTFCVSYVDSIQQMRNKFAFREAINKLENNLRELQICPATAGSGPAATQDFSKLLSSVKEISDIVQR
Tyrosine-protein kinase Lck (Homo sapiens), sequence (P06239 2-509 limits assumed): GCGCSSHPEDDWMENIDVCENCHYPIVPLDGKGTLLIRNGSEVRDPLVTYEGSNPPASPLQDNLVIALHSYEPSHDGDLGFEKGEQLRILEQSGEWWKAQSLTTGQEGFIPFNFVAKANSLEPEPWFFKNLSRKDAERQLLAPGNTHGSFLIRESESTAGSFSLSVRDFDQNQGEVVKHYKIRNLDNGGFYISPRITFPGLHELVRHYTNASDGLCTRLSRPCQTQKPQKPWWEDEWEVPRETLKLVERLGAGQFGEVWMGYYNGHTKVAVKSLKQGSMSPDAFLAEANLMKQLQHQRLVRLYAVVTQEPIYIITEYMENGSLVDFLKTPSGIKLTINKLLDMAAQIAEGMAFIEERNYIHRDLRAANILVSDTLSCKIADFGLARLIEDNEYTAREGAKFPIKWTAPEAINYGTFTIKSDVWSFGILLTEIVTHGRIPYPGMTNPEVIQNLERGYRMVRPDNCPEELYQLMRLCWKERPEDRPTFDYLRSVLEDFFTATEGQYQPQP

For CNc1cc(O)c2c(c1)/C=C/C[C@H](O)[C@H](O)C(=O)/C=C\[C@@H](C)[C@H](C)OC2=O, the inhibition [1] was “Active”, the Activity [2] was 69% and the Activity [3] was 22%. The Activity [4] was 38%, the Activity [5] was 3% and the Activity [6] was 30%. It also gave an Activity [7] of 4%, an Activity [8] of 46% and an Activity [9] of 7%. For the same compound, the IC50 [10] was > 10 µM, the IC50 [11] was > 10 µM and the IC50 [12] was 0.119 µM. The IC50 [13] was 0.05 µM, the IC50 [14] was 0.03 µM and the IC50 [15] was 0.466 µM. For the same compound, the IC50 [16] was 0.113 µM, the IC50 [17] was 0.019 µM and the IC50 [18] was 0.053 µM. The IC50 [19] was 0.209 µM, the IC50 [20] was 0.09 µM and the IC50 [21] was 0.257 µM. For the same compound, the IC50 [22] was 0.207 µM, the IC50 [23] was 0.027 µM and the IC50 [24] was 0.065 µM. For the same compound, the IC50 [25] was 0.582 µM, the IC50 [26] was > 10 µM and the IC50 [27] was 0.412 µM. For the same compound, the IC50 [28] was 5.78 µM, the IC50 [29] was 0.908 µM and the IC50 [30] was > 10 µM. The Activity [31] was 100%, the Activity [32] was 100% and the Activity (LOX) was “Active”. The IC50 [33] was 0.05 µM, the IC50 [34] was 0.09 µM and the IC50 [35] was 1.43 µM. The IC50 [36] was 1 µM, the IC50 [37] was > 4.83 µM and the IC50 [38] was 1.62 µM. For the same compound, the IC50 [39] was 0.65 µM and the inhibition [40] was “Active”.
